Columns and labels:
[1] = system: secretion of HBsAg by 2.2.15 cells; assay: Inhibition of secretion of HBsAg by Hepatitis B 2.2.15 cell line; assay type: cell-based, HBV; conditions: 1 μmol/ml; for HBsAg Inhibition rate: 2.2.15 cells, supernatant collected three days later
From the text: (§1) Hepatitis B 2.2.15 cell line was transfected by HBV DNA (purchased from Institute of Biochemistry and Cell Biology of Shanghai Institute for Biological Sciences or the National Center for Drug Screening) and used as the cell model for screening anti-HBV drug compounds (See Chinese Journal Of Integrated Traditional and Western Medicine on Liver Diseases, 2004, 14(3): 158). The cell culture medium DMEM (GIBCO Company), bovine serum (Hangzhou Siji Qing Biochemical Manufacturer), G418 (GIBCO Company), 3-(4,5-dimethylthiazol-2-yl)-2,5-diphenyltetrazoliumbromide (Sigma), HBsAg and HBeAg diagnostic kit (Shanghai Kehua Bio-engineering Co., Ltd).
(§2) The test compounds listed in Table 3 below were dissolved in a mixture containing 20 ml 1,2-propylene glycol and 15 ml Tween-80 and diluted with sterile saline water to 2 μmol/ml of the test compound. Then it was mixed with the cell culture medium at equal volume to obtain a solution containing 1 μmol/ml of the tested compound. Cells at the concentration of 1×10^5 cells per milliliter were inoculated to a 24-well plate at 1 ml/well. Supernatant from the cell culture mixture was collected three days later for testing.

[2] = system: secretion of HBeAg by 2.2.15 cells; assay: Inhibition of secretion of HBeAg by Hepatitis B 2.2.15 cell line; assay type: cell-based, HBV; conditions: 1 μmol/ml; for HBeAg Inhibition Rate: 2.2.15 cells, supernatant collected three days later
From the text: as §1, §2

HPV 6/11 = assay: Drug screening by quantitative fluorescent PCR analysis of HPV 6/11 in condyloma acuminata homogenate; set-up: species or system human papillomavirus (HPV); conditions: for HPV 6/11 Virus (copies/ml): 50 μl 10% micro emulsion + 50 μl HPV sample homogenate, 37° C., 24 hours, saline control 1.45 × 10^6; for HPV 6/11 detected by FQ-PCR (in words): 24 hours after adding the test compound
HPV 16/18 = assay: Drug screening by quantitative fluorescent PCR analysis of HPV 16/18 in condyloma acuminata homogenate; set-up: species or system human papillomavirus (HPV); conditions: for HPV 16/18 Virus (copies/ml): 50 μl 10% micro emulsion + 50 μl HPV sample homogenate, 37° C., 24 hours, saline control 1.40 × 10^5; for HPV 16/18 detected by FQ-PCR (in words): 24 hours after adding the test compound
condyloma acuminata = assay: Clinical use in treating condyloma acuminata; assay type: in vivo, human; conditions: for treatment effect compared to recombinant human interferon α-2β gel: condyloma acuminata patients, 10% micro emulsion
From the text: Soft hyperplasia with nipple or cauliflower shaped or other shaped warts were found around the skin of the cunnus or anus. The result from 5% acetate acid white test was positive.
Patients selected for the clinical observation must meet the above standards. Plus the diameter of their skin lesions should equal to or be less than 1 cm. […] Patients who had vaginal yeast, trichomonas, bacteria infection or other complications, chronic diseases, serious liver or kidney diseases or women in pregnancy or lactation were not selected. Treatments to women would not be conducted in their menstrual periods.
50 qualified patients were selected and randomly divided into five groups to be tested with p-hydroxybenzoic acid, gallic acid, ethyl p-hydroxybenzoate, propyl gallate and recombinant human interferon α-2β gel, respectively. The samples of p-hydroxybenzoic acid, gallic acid, ethyl p-hydroxybenzoate and propyl gallate were prepared as described in Example 1. The patients were treated with the test sample to the affected areas three times a day, in the morning, at noon and night. The samples were applied to cover the warts and the patients were required to leave the treated areas exposed and not to move for 20 minutes.
Observation time: 8 days. Patients not cured after 8 days would continue to use the test samples for another 12 weeks, and their prognosis was followed during the 12-week period.
Observed items: the location, shape, size and number of warts were carefully observed and recorded before the treatment.
“Recovered”: all skin lesions had disappeared;
“Obvious Effect”: more than 70% of the skin lesions had disappeared;
“Improved”: more than 30% of the skin lesions had disappeared;
“Not Effective”: less than 30% of the skin lesions had disappeared or the original skin lesions didn't change or even enlarged.

[3] = number of patients, more than 70% of the skin lesions disappeared

| Compound | HPV 6/11 Virus (copies/ml) (HPV 6/11) | HPV 16/18 Virus (copies/ml) (HPV 16/18) | HPV 16/18 detected by FQ-PCR (in words) (HPV 16/18) | further results |
| --- | --- | --- | --- | --- |
| CCOC(=O)c1ccc(O)c(O)c1 [Ethyl 3,4-dihydroxybenzoate] | – | – | – | effect on the secretion of HBsAg by the 2.2.15 cells (in words) [1]: had inhibition effect; inhibition of HBsAg secretion compared with gallic acid and 3,4-dihydroxybenzoic acid [1]: more effective; HBsAg Inhibition rate [1]: 14.20%; effect on the secretion of HBeAg by the 2.2.15 cells (in words) [2]: had inhibition effect; inhibition of HBeAg secretion compared with gallic acid and 3,4-dihydroxybenzoic acid [2]: more effective; HBeAg Inhibition Rate [2]: 6.04% |
| CCOC(=O)c1ccc(O)cc1 [Ethyl p-hydroxybenzoate] | 8.50 × 10^4 copies/ml | 0 copies/ml | not detected | treatment effect compared to recombinant human interferon α-2β gel (condyloma acuminata): more apparent treatment effect; Recovered, 1-4 days (condyloma acuminata; number of patients (50 patients in five groups), 10% micro emulsion on affected areas three times a day, all skin lesions disappeared): 6; Recovered, 5-8 days (condyloma acuminata; number of patients, 10% micro emulsion three times a day, all skin lesions disappeared): 2; Obvious Effect, 1-4 days (condyloma acuminata; [3]): 2 |
| CCCOC(=O)c1ccc(O)c(O)c1O [Propyl 2,3,4-trihydroxybenzoate] | 0 copies/ml | 0 copies/ml | no HPV 6/11 or HPV 16/18 was detected | HPV 6/11 detected by FQ-PCR (in words) (HPV 6/11): no HPV 6/11 or HPV 16/18 was detected |
| COC(=O)c1ccc(O)c(O)c1 [Methyl 3,4-dihydroxybenzoate] | 8.50 × 10^4 copies/ml | 6.00 × 10^2 copies/ml | – | – |
| COC(=O)c1ccc(O)cc1O [Methyl 2,4-dihydroxybenzoate] | 5.20 × 10^4 copies/ml | 2.50 × 10^2 copies/ml | – | – |
| O=C(O)c1ccc(O)cc1O [2,4-dihydroxybenzoic acid] | 1.60 × 10^4 copies/ml | 4.60 × 10^3 copies/ml | – | – |
| O=C(O)c1ccc(O)cc1 [p-hydroxybenzoic acid] | 7.00 × 10^5 copies/ml | 1.30 × 10^3 copies/ml | – | treatment effect compared to recombinant human interferon α-2β gel (condyloma acuminata): more apparent treatment effect; Not Effective (condyloma acuminata; number of patients, less than 30% of the skin lesions disappeared, observation 8 days): 3; Improved (condyloma acuminata; number of patients, more than 30% of the skin lesions disappeared, observation 8 days): 2; Obvious Effect, 5-8 days (condyloma acuminata; [3]): 5 |
| CCOC(=O)c1cc(O)c(O)c(O)c1 [Ethyl gallate] | 0 copies/ml | 0 copies/ml | no HPV 6/11 or HPV 16/18 was detected | HPV 6/11 detected by FQ-PCR (in words) (HPV 6/11): no HPV 6/11 or HPV 16/18 was detected |
| O=C(O)c1cccc(O)c1O [2,3-dihydroxybenzoic acid] | 2.30 × 10^4 copies/ml | 3.20 × 10^3 copies/ml | – | – |
| O=C(O)c1ccc(O)c(O)c1 [3,4-dihydroxybenzoic acid] | 1.90 × 10^4 copies/ml | 8.50 × 10^4 copies/ml | – | effect on the secretion of HBsAg by the 2.2.15 cells (in words) [1]: had inhibition effect; HBsAg Inhibition rate [1]: 9.81%; effect on the secretion of HBeAg by the 2.2.15 cells (in words) [2]: had inhibition effect; HBeAg Inhibition Rate [2]: 8.92% |
| CCCCCCCCOC(=O)c1cc(O)c(O)c(O)c1 [Octyl gallate] | 0 copies/ml | 0 copies/ml | no HPV 6/11 or HPV 16/18 was detected | HPV 6/11 detected by FQ-PCR (in words) (HPV 6/11): no HPV 6/11 or HPV 16/18 was detected |

— patent US8044098B2, “Use of hydroxybenzoic acids and their esters and analogues for preventing or treating virus infection” (Shenghua Guangzhou Pharmaceutical Science & Technology Co., …, priority 2005, dated 2011)
